Values after ≈ are worked out from the molar mass of the structure shown.

Common to all, as to assay type: cell-based
In assay [1] the test system is Staphylococcus aureus (ATCC-849). Briefly: MIC by agar dilution against Staphylococcus aureus. The following applies: for MIC: ATCC849.
Assay [2] has as its system Methicillin Resistant Staphylococcus aureus (ATCC-919). Put plainly: MIC by agar dilution against methicillin-resistant Staphylococcus aureus. The settings on record: for MIC: ATCC 919 / MRSA. Background: In agar dilution the substance is mixed into plates at graded concentrations.
For assay [3], the system named is Live Vaccine Strain of Francisella tularensis. Briefly: microbe, parasite or virus in culture.

As for `c1ccc(OSSOc2ccccc2)cc1` [V], the MIC in assay [1] worked out at 2 µg/mL (≈ 7.99 µM); in assay [2], 2 µg/mL (≈ 7.99 µM); in assay [3], 1 µg/mL (≈ 3.99 µM).

Consider `C=CCN(CC=C)SSN(CC=C)CC=C` [XIX], for which the MIC in assay [1] was found to be 1 µg/mL (≈ 3.9 µM); in assay [2] it was 0.5 µg/mL (≈ 1.95 µM); in assay [3], 16 µg/mL (≈ 62.4 µM).

`CCC(C)SSSSC(C)CC` (stereo not drawn) [XIV]: the MIC worked out at 32 µg/mL (≈ 132 µM) in assay [1], 64 µg/mL (≈ 264 µM) in assay [2] and 16 µg/mL (≈ 66 µM) in assay [3].

Regarding `CN(C)SSN(C)C` [XVI], the results for the MIC in assay [1], in assay [2] and in assay [3] were 0.25 µg/mL (≈ 1.64 µM), 0.5 µg/mL (≈ 3.28 µM) and 8 µg/mL (≈ 52.5 µM), respectively.

Turning to `CC1(C)S[C@@H]2[C@H](NC(=O)Cc3ccccc3)C(=O)N2[C@H]1C(=O)O` [Penicillin G, reference compound], the “MIC S.A.” value in assay [1] was 0.125 µg/mL (≈ 0.374 µM). In assay [2], the “MIC MRSA” value is 16 µg/mL (≈ 47.8 µM).

Take `c1ccc(SSSSc2ccccc2)cc1` [XV]: the MIC in assay [1] was 8 µg/mL (≈ 28.3 µM); in assay [2] it was 8 µg/mL (≈ 28.3 µM); in assay [3] it was 2 µg/mL (≈ 7.08 µM).

Regarding `CCCSSSSCCC` [XI], the MIC came to 32 µg/mL (≈ 149 µM) in assay [1], 32 µg/mL (≈ 149 µM) in assay [2] and 1 µg/mL (≈ 4.66 µM) in assay [3].

Regarding `c1ccc(NSSNc2ccccc2)cc1` [X], the values for the MIC in assay [1], in assay [2] and in assay [3] were 4 µg/mL (≈ 16.1 µM), 4 µg/mL (≈ 16.1 µM) and 0.5 µg/mL (≈ 2.01 µM), respectively.

Turning to `CCC(C)NSSNC(C)CC` (stereo not drawn) [IX], the MIC in assay [1] amounted to 16 µg/mL (≈ 76.8 µM); in assay [2], 16 µg/mL (≈ 76.8 µM); in assay [3], 8 µg/mL (≈ 38.4 µM).

`CC(C)SSSSC(C)C` [XII]: the results for the MIC in assay [1], in assay [2] and in assay [3] were 32 µg/mL (≈ 149 µM), 32 µg/mL (≈ 149 µM) and 8 µg/mL (≈ 37.3 µM), respectively.

Consider `CCCCSSSSCCCC` [XIII], for which the results for the MIC in assay [1], in assay [2] and in assay [3] were 64 µg/mL (≈ 264 µM), 32 µg/mL (≈ 132 µM) and 4 µg/mL (≈ 16.5 µM), respectively.

For the molecule `CCN(SSN(C(C)C)C(C)C)C(C)C` [XVIII], the MIC in assay [1] came to 2 µg/mL (≈ 7.98 µM); in assay [2], 1 µg/mL (≈ 3.99 µM); in assay [3], 32 µg/mL (≈ 128 µM).

Turning to `CC(C)NSSNC(C)C` [VII], the MIC was determined as 32 µg/mL (≈ 177 µM) in assay [1], 32 µg/mL (≈ 177 µM) in assay [2] and 2 µg/mL (≈ 11.1 µM) in assay [3].

In the case of `CCCCOSSOCCCC` [III], the values for the MIC in assay [1], in assay [2] and in assay [3] were 0.25 µg/mL (≈ 1.19 µM), 8 µg/mL (≈ 38 µM) and 4 µg/mL (≈ 19 µM), respectively.

As to `CCCCNSSNCCCC` [VIII], the MIC in assay [1] came out at 8 µg/mL (≈ 38.4 µM); in assay [2], 32 µg/mL (≈ 154 µM); in assay [3], 4 µg/mL (≈ 19.2 µM).

As to `CC(C)OSSOC(C)C` [II], the MIC turned out to be 1 µg/mL (≈ 5.49 µM) in assay [1], 0.5 µg/mL (≈ 2.74 µM) in assay [2] and 4 µg/mL (≈ 21.9 µM) in assay [3].

In the case of `CCN(CC)SSN(CC)CC` [XVII], the figures for the MIC in assay [1], in assay [2] and in assay [3] were 2 µg/mL (≈ 9.6 µM), 2 µg/mL (≈ 9.6 µM) and 16 µg/mL (≈ 76.8 µM), respectively.

As for `CCCNSSNCCC` [VI], the figures for the MIC in assay [1], in assay [2] and in assay [3] were 8 µg/mL (≈ 44.4 µM), 4 µg/mL (≈ 22.2 µM) and 16 µg/mL (≈ 88.7 µM), respectively.

As to `CCCOSSOCCC` [I], the values for the MIC in assay [1], in assay [2] and in assay [3] were 32 µg/mL (≈ 176 µM), 32 µg/mL (≈ 176 µM) and 16 µg/mL (≈ 87.8 µM), respectively.

In turn, `O=C(O)c1cn(C2CC2)c2cc(N3CCNCC3)c(F)cc2c1=O` [Ciprofloxacin, reference compound] came in with an MIC in assay [3] of 16 µg/mL (≈ 48.3 µM).

Consider `CCC(C)OSSOC(C)CC` (stereo not drawn) [IV], for which the MIC amounted to 16 µg/mL (≈ 76.1 µM) in assay [1], 8 µg/mL (≈ 38 µM) in assay [2] and 16 µg/mL (≈ 76.1 µM) in assay [3].

For the molecule `CC(C)CN(CC(C)C)SSN(CC(C)C)CC(C)C` [XX], the results for the MIC in assay [1], in assay [2] and in assay [3] were 16 µg/mL (≈ 49.9 µM), 16 µg/mL (≈ 49.9 µM) and 1 µg/mL (≈ 3.12 µM), respectively.

The values above are taken from patent publication US10350177B2, “Antibacterial S-heterosubstituted disulfides” (priority 2007, dated 2019).
